The values below come from PubChem BioAssay AID1508612.

The series is described as follows: passive permeability, PAMPA, ADME assay (AID 1508612). Conditions: pH 7.4, 30.0 min, 50.0 µM. In general terms: The PAMPA barrier holds no transporters, so it reflects passive diffusion.
As usually defined, the Papp is the rate of passage across a membrane or cell layer, normalised by area and donor concentration. The low end stands for slow passage, the high end for fast passage. Turning to `CN1CCN(C(=O)c2ccc3cc(CCNc4ncnc5ccc(C#N)cc45)ccc3c2)CC1`, the apparent permeability coefficient (Papp) was found to be 545 ×10⁻⁶ cm/s. The compound `CNC(=O)Cn1cc(-c2ccc3c(c2)C(F)CC32NC(=O)N(CC(=O)N(Cc3ccc(F)cc3)[C@@H](C)C(F)(F)F)C2=O)cn1` (some centres not stated) came in with a Papp of 115 ×10⁻⁶ cm/s. The compound `CNc1nc(-c2cccc3ccccc23)ccc1C#N` gave a Papp of 985 ×10⁻⁶ cm/s. Compared with the last compound, the Papp is about 8.6-fold higher. In the case of `Cc1cccc(N(C)c2nc3ccccc3c3nnc(C)n23)c1`, the Papp was > 1000 ×10⁻⁶ cm/s. In turn, `O=C1CCc2cc(S(=O)(=O)Nc3ccc(F)c(Cl)c3)c(F)cc2N1` came in with a Papp of 861 ×10⁻⁶ cm/s. Consider `COc1ccc(O)c2c(=O)c3c(OC)cc4c(c3oc12)C1C=COC1O4` (configuration not stated), for which the Papp worked out at 890 ×10⁻⁶ cm/s.

Take `COc1cccc(C(=O)Nc2nc(-c3nnn(-c4cccc(Cl)c4C)c3C)ns2)c1`: the Papp was 321 ×10⁻⁶ cm/s. The result for `CC1(COc2ccc3c(c2)ncn3-c2ccc3cccc(N4CCC(N)CC4)c3n2)COC1` reads 25.2 ×10⁻⁶ cm/s; that for `Cc1ccc(-c2cc(C(=O)Nc3cccc(S(N)(=O)=O)c3)c3ccccc3n2)cc1C`, 11.8 ×10⁻⁶ cm/s. On to `COc1ccc(OC)c(-c2cc(C(=O)N3CCN(c4ncccn4)CC3)c3ccccc3n2)c1`, for which the Papp is > 1000 ×10⁻⁶ cm/s. `Cc1cc2ccccc2n1CC(=O)NC1CCCCC1`: the Papp is 634 ×10⁻⁶ cm/s. As for `Cc1ccc(S(=O)(=O)Nc2cnccc2C(=O)Nc2nc(-c3cccnc3)cs2)cc1`, the Papp is 104 ×10⁻⁶ cm/s. As for `O=C(Nc1nc(-c2ccccc2)cs1)c1ccncc1NS(=O)(=O)c1ccc2c(c1)CCC2`, the Papp was > 1000 ×10⁻⁶ cm/s. For `Nc1cccc(CNc2ccc(S(=O)(=O)Nc3nccs3)cc2)c1O`, the Papp was < 1 ×10⁻⁶ cm/s.

As for `CC(C)c1ccc(S(=O)(=O)c2cnc(SCC(=O)Nc3ccc4c(c3)OCCO4)[nH]c2=O)cc1`, the Papp turned out to be 1.84 ×10⁻⁶ cm/s.

With `COC(=O)Nc1nc2ccc(Sc3ccccc3)cc2[nH]1`, the Papp is 197 ×10⁻⁶ cm/s.

`O=C(Nc1cccc(OC(F)(F)F)c1)c1cc(-c2ccc[nH]2)n[nH]1` registered a Papp of 26.6 ×10⁻⁶ cm/s.

For the compound `CC(=O)c1c(C)c(C(=O)Nc2cccc([S+](=O)([O-])N(C)C)c2)n(C)c1C`, the Papp turned out to be 295 ×10⁻⁶ cm/s. On to `Cc1nc(N)nc2ccccc12`, for which the Papp turned out to be 69.7 ×10⁻⁶ cm/s. With `Cc1cc(Nc2ccc(Br)c(C)c2)n2nc(C)nc2n1`, the Papp was found to be 874 ×10⁻⁶ cm/s. `Clc1ccc(C2=Nn3c(nnc3-c3ccncc3)SC2)cc1`: the Papp is 372 ×10⁻⁶ cm/s.

With `CCOC(=O)C1CCN(c2nc(-c3ccc(Br)cc3)cs2)CC1`, the Papp turned out to be 120 ×10⁻⁶ cm/s. `CCOC(=O)c1cnc2ccc(-c3cncc(NS(=O)(=O)c4ccccc4)c3)cn12` returned a Papp of 705 ×10⁻⁶ cm/s.

The compound `Cc1cc(-c2nnc3n2CCCCC3)c(C)n1-c1ccc(C#N)cc1` returned a Papp of 215 ×10⁻⁶ cm/s. `CCc1cccc(NC(=O)C(Cc2ccccc2)NS(=O)(=O)c2cccs2)c1` (configuration not stated) showed a Papp of 887 ×10⁻⁶ cm/s. This Papp is about 4.1-fold higher than that of the compound before. The same measure for `Cc1cc(CNC(=O)c2ccc3c(c2)n(CC2CC2)c(=O)n3C2CCCCC2)on1`: 964 ×10⁻⁶ cm/s; for `O=C(Nc1ccccc1)C1CCN(c2nc(-c3ccc(Br)cc3)cs2)CC1`: 48.6 ×10⁻⁶ cm/s. As for `Cc1nc2c(-c3ccccc3)cnn2c(N)c1-c1ccccc1`, the Papp came out at 207 ×10⁻⁶ cm/s. `COc1cc(/C=C(\C#N)c2nc3ccccc3[nH]2)ccc1OCc1ccc(F)cc1` had a Papp of 641 ×10⁻⁶ cm/s. This Papp is about 3.1-fold higher than that of the compound before. As to `O=C(O)CCC(=O)Nc1nc(-c2ccccc2)cs1`, the Papp was < 1 ×10⁻⁶ cm/s. Turning to `Cc1ccc(-n2nc(C)c3c(-c4ccc(O)c(O)c4)c(C#N)c(N)nc32)cc1C`, the Papp was 187 ×10⁻⁶ cm/s. `COc1ccc(Cn2c(C(=O)O)c(CNCc3cccc(OC)c3)c3ccc(C)cc32)cc1`: the Papp was 361 ×10⁻⁶ cm/s. Against the preceding compound, the Papp is about 1.9-fold higher. The result for `O=C(Nc1nc(-c2ccccc2)cs1)c1ccncc1NS(=O)(=O)c1ccc(F)cc1F` reads 798 ×10⁻⁶ cm/s; that for `O=C(Nc1ccccc1O)c1ccc(NC(=O)C2CC2)cc1`, 117 ×10⁻⁶ cm/s. Compound `COC(=O)c1ccc2nc(NC3=NC(c4[nH]ncc4Cl)C4=C(CCCC4=O)N3)oc2c1` (configuration not stated) gave a Papp of 578 ×10⁻⁶ cm/s. This Papp lies about 4.9-fold higher than the previous one. With `O=c1[nH]cnc2c1ccn2C1OC(CO)C(O)C1O` (configuration not stated), the Papp worked out at 3.01 ×10⁻⁶ cm/s. The compound `O=C(c1ccccc1)N1CCN(c2nc(-c3ccc(Br)cc3)cs2)CC1` came in with a Papp of 743 ×10⁻⁶ cm/s. Consider `CC(C)c1ccccc1-c1ncc(F)c(NCc2ccc(-c3cccnc3)s2)n1`, for which the Papp was > 1000 ×10⁻⁶ cm/s. Turning to `COc1ccccc1N1CCN(CCN(C(=O)c2ccc(I)cc2)c2ccccn2)CC1`, the apparent permeability coefficient (Papp) is > 1000 ×10⁻⁶ cm/s.

Compound `COc1ccc(NC(=O)c2cccnc2)cc1S(=O)(=O)Nc1ccc(Br)cc1` yielded a Papp of 514 ×10⁻⁶ cm/s. Turning to `CCN(c1cc(C#CCN2CCOCC2)cc(C(=O)NCc2c(C)cc(C)[nH]c2=O)c1C)C1CCC(N(C)CCOC)CC1` (configuration not stated), the Papp came out at 6.74 ×10⁻⁶ cm/s. `CN(C)c1ccc(-c2cc[nH]c(=O)c2N)cc1`: the Papp was 116 ×10⁻⁶ cm/s. Turning to `COc1ccccc1CNc1ccc(N2CCCCC2)cc1`, the Papp was > 1000 ×10⁻⁶ cm/s.

On to `CCN(CC)C(=O)c1sc2c(c1C)c(=O)n(Cc1ccccc1)c(=O)n2CC(=O)Nc1ccc(OC)cc1`, for which the Papp is > 1000 ×10⁻⁶ cm/s. In turn, `CN(C)C(=O)c1nc(-c2ccc(S(C)(=O)=O)cc2)c2cnccn12` returned a Papp of 16.8 ×10⁻⁶ cm/s. Regarding `O=C(Cc1ccc(-c2csc(Nc3ccc(F)cc3)n2)s1)N1CCOCC1`, the Papp was > 1000 ×10⁻⁶ cm/s. The same measure for `Fc1ccc(Nc2nc(-c3ccccc3)cc(-c3ccncc3)n2)cc1F`: < 1 ×10⁻⁶ cm/s; for `Cc1ccnc(NC(=S)N2CCN(c3ncc(C(F)(F)F)cc3Cl)CC2)c1`: 930 ×10⁻⁶ cm/s. For the compound `C=C[C@@]1(C)C[C@H](OC(=O)CSC(C)(C)CNC(=O)[C@@H](N)C(C)C)[C@@]2(C)C(C)CC[C@@]3(CCC(=O)[C@@H]32)[C@H](C)[C@H]1O` (some centres not stated), the Papp is > 1000 ×10⁻⁶ cm/s. `O=C(Nc1nc(-c2ccccc2)cs1)c1ccncc1NS(=O)(=O)c1ccc(Cl)cc1` came in with a Papp of 294 ×10⁻⁶ cm/s.

`Fc1cnc(-c2ccccc2C(F)F)nc1NCc1ccc(-n2ccnn2)cc1`: the Papp is > 1000 ×10⁻⁶ cm/s. The result for `COc1cc(Cl)c(C)cc1NC(=O)CSc1ncc(S(=O)(=O)c2ccc(C(C)(C)C)cc2)c(=O)[nH]1` reads 16.2 ×10⁻⁶ cm/s; that for `Fc1cccc(CN2CCNc3cc(Nc4ccccc4)ncc3C2)c1`, < 1 ×10⁻⁶ cm/s. Regarding `N=c1c2ccccc2nnn1-c1ccc(C(F)(F)F)cc1`, the Papp was determined as 148 ×10⁻⁶ cm/s. Turning to `OCCNc1ncnc2c1ncn2[C@@H]1O[C@@H](CO)[C@H](O)[C@@H]1O`, the Papp is < 1 ×10⁻⁶ cm/s. In turn, `O=c1cc(-c2nc(Nc3ccc(F)c(F)c3)c3ccccc3n2)cc[nH]1` came in with an apparent permeability (Papp) of 396 ×10⁻⁶ cm/s. The same measure for `COc1ccc(NC(=O)c2[nH]c(C)c(C(C)=O)c2C)cc1`: 377 ×10⁻⁶ cm/s. `Nc1nc(Nc2ccc(S(N)(=O)=O)cc2)nn1C(=O)c1c(F)cccc1F` registered an apparent permeability (Papp) of 1.61 ×10⁻⁶ cm/s. Consider `NC(=O)C1CCN(c2nc(-c3ccc4c(c3)OCO4)cs2)CC1`, for which the Papp stood at 740 ×10⁻⁶ cm/s. The same measure for `Cc1ccnc(NC(=S)N2CCN(c3ccccc3C(F)(F)F)CC2)c1`: 726 ×10⁻⁶ cm/s; for `Cc1cc(-c2nnc3n2CCCCC3)c(C)n1-c1ccc([N+](=O)[O-])cc1`: 20.8 ×10⁻⁶ cm/s; for `O=C(Nc1nc(-c2ccc(F)cc2)cs1)c1ccncc1NS(=O)(=O)c1ccccc1Cl`: > 1000 ×10⁻⁶ cm/s.

Consider `Cc1cn(-c2cc(NC(=O)c3ccc(C)c(Nc4nccc(-c5cccnc5)n4)c3)cc(C(F)(F)F)c2)cn1`, for which the Papp came to 676 ×10⁻⁶ cm/s. As for `O=C(CCCCn1c(=O)[nH]c2ccsc2c1=O)N1CCN(c2cccc(Cl)c2)CC1`, the apparent permeability coefficient (Papp) stood at 855 ×10⁻⁶ cm/s. In turn, `NC(=O)C1CCN(c2nccc(-c3ccc(Br)cc3)n2)CC1` returned an apparent permeability (Papp) of 360 ×10⁻⁶ cm/s. The result for `COc1ccc(OC)c(N2C(=O)C(Cl)=C(N3CCCCC3)C2=O)c1` reads > 1000 ×10⁻⁶ cm/s. `CCOc1cc(-c2nccc3cc(OC)c(OC)cc23)cc(OCC)c1OCC`: the Papp was > 1000 ×10⁻⁶ cm/s. Compound `CN1C(=O)CN=C(c2ccc[nH]2)c2cc(Cl)ccc21` returned an apparent permeability (Papp) of 714 ×10⁻⁶ cm/s.

For `Cc1ccnc(NC(=O)C2CC(=O)N(c3n[nH]c4cc(Br)ccc34)C2)c1` (configuration not stated), the Papp is 563 ×10⁻⁶ cm/s. `O=C1CCCC2=C1C(c1[nH]ncc1Cl)N=C(Nc1nc3ccc(F)cc3o1)N2` (configuration not stated): the apparent permeability (Papp) is 653 ×10⁻⁶ cm/s. The result for `O=C(O)c1ccc(N2C(=O)/C(=C/c3ccc(-c4ccc([N+](=O)[O-])cc4)o3)C=C2c2ccccc2)cc1` reads 34.3 ×10⁻⁶ cm/s; that for `O=C(c1ccc2c(c1)ncn2-c1cccc(C(F)(F)F)c1)N1CCCCC1`, > 1000 ×10⁻⁶ cm/s; that for `COc1ccc(Cn2c(=O)[nH]c3cc(C(=O)NCCCN4CCCCC4)ccc3c2=O)cc1`, 16.8 ×10⁻⁶ cm/s. Consider `Fc1cc(Nc2nc(-c3ccncc3)nc3ccccc23)ccc1C(F)(F)F`, for which the Papp worked out at 641 ×10⁻⁶ cm/s. This Papp lies about 38-fold higher than the previous one. Consider `NCC(=O)Nc1cncc(-c2nn3c(=O)cc(N4CCNCC4)nc3s2)c1`, for which the Papp was < 1 ×10⁻⁶ cm/s. `Cc1cccc2nc(NC3=NC(c4[nH]ncc4Cl)C4=C(CCCC4=O)N3)oc12` (configuration not stated): the Papp stood at 624 ×10⁻⁶ cm/s. `N=c1c2c(n(Cc3ccccc3)c3c1CCC3)CCC2`: the Papp was < 1 ×10⁻⁶ cm/s.

As to `O=C(c1ccc2c(c1)ncn2-c1ccccc1)N1CCCCC1`, the Papp was found to be 472 ×10⁻⁶ cm/s. Turning to `COc1ccc(-c2csc(NC(=O)c3ccccc3NS(=O)(=O)c3ccc(C)cc3)n2)cc1`, the Papp turned out to be 7.7 ×10⁻⁶ cm/s.

With `NC(=O)C1CCN(c2nc(-c3cccc(Cl)c3)cs2)CC1`, the Papp is > 1000 ×10⁻⁶ cm/s. For `CC[C@@H](CO)NC(=O)[C@@H]1C=C2c3cccc4c3c(cn4C)C[C@H]2N(C)C1`, the Papp amounted to 396 ×10⁻⁶ cm/s.

The compound `CN(C)C(=O)c1cc(-c2ccc(S(C)(=O)=O)cc2)c2cnn(C)c2n1` returned an apparent permeability coefficient (Papp) of 22.6 ×10⁻⁶ cm/s.

`COc1c2c(c3c(c1CCC(=O)O)OC(C)(C)C=C3)OC(C)(C)C=C2`: the apparent permeability (Papp) turned out to be 43.9 ×10⁻⁶ cm/s. This Papp is about 1.9-fold higher than that of the compound before. Compound `COc1cc(C(=O)NC2CCCc3c2[nH]c2ccccc32)cc(OC)c1OC` (configuration not stated) had a Papp of 189 ×10⁻⁶ cm/s. Against the preceding compound, the Papp is about 4.3-fold higher.

As to `CC(=O)c1ccc(N[S+](=O)([O-])c2cccc(NC(=O)c3[nH]c(C)c(C(C)=O)c3C)c2)cc1`, the Papp was < 1 ×10⁻⁶ cm/s.

Compound `Nc1ncc(S(=O)(=O)N2CCN(c3ccccc3)CC2)cn1` showed a Papp of 13.5 ×10⁻⁶ cm/s.

As for `O=C(NCCc1ccccn1)C1CC(=O)N(c2n[nH]c3cc(Br)ccc23)C1` (configuration not stated), the Papp is < 1 ×10⁻⁶ cm/s. The same measure for `Clc1ccc(-c2nnc(C3CCCCC3)o2)cc1`: > 1000 ×10⁻⁶ cm/s. As for `COC(=O)C1=C(C)NC(=O)CC1C(=O)Nc1ccc(Cl)cc1` (configuration not stated), the Papp came out at 126 ×10⁻⁶ cm/s.

Turning to `Cc1ccc(S(=O)(=O)Nc2cnccc2C(=O)NCc2ccccc2)cc1`, the Papp was 27.7 ×10⁻⁶ cm/s.

`COc1ccc(C[C@@H]2C(=O)N[C@H](C)C(=O)N(C)[C@@H]3C(=O)N(C)[C@@H](Cc4ccc(O)c(c4)Oc4ccc(cc4)[C@H]3O)C(=O)N[C@@H](C)C(=O)N[C@H](C)C(=O)N2C)cc1` displayed an apparent permeability coefficient (Papp) of 4.5 ×10⁻⁶ cm/s. The result for `CNc1oc(-c2cccc3ccccc23)nc1C#N` reads 723 ×10⁻⁶ cm/s.
